We go through four molecules from publication PMC12645191, “Dicarboxylate and dicarboxylic acid appended supramolecular self-associating amphiphiles as antimicrobial agents against high priority bacterial pathogens” (Organic & Biomolecular Chemistry, 2025).

Values joined by “and” are separate entries in the source; they are usually repeats but may differ in a detail not shown here. Identical values can stand only once. Like-named read-outs stand apart in the source and are kept apart here.

Series [1] in a line: quantitative (Q) 1H NMR spectroscopy, proportion of SSA becoming NMR silent (higher-order aggregates). It is filed as physicochemical. The method, then: To confirm the presence of higher order self-associative structures quantitative (Q) ^1H NMR spectroscopy studies were undertaken at 5.6 mM in D2O 5% EtOH. Here the ^1H NMR resonances attributed to the EtOH are used as an internal standard.
Table S1 – Overview of results of the quantitative (Q) 1H NMR studies for 1, 3, 5, 7 and 9
5.0 % EtOH . Values given in % represent the observed proportion of the SSA that has become
Table S2 – Overview of results of the quantitative (Q) 1H NMR studies for 2, 4, 6, 8 and 10
5.0 % EtOH. Values given in % represent the observed proportion of anion and cation that has

In another series the test system is E. faecium NCTC 12204. Nature of the series: inhibition of bacterial growth, OD600 after 20 h. The format is cell-based, Enterococcus faecium. The note with it: SSA 5.0 mM, 2.5% ethanol, negative = enhanced growth. The method, then: With the self-associative properties of 1–10 established, the antimicrobial activity of these SSAs were determined against a panel of clinically relevant, high-priority pathogens including: P. aeruginosa PAO1; Klebsiella pneumonia (K. pneumoniae) M6; E. coli NCTC 12923; Acinetobacter baumannii (A. baumannii) ATCC 17978; S. aureus ATCC 9144; Enterococcus faecalis (E. faecalis) NCTC 775; and Enterococcus faecium (E. faecium) NCTC 12204. […] However, it should be noted that the SSA stock solution was prepared in a H2O 5% EtOH solution, to ensure that the SSA aggregates formed were in line with those characterised within the scope of the SSA self-association studies.
Section 3: Biological methods
These methods were taken directly from UK Health and Security Office (UKHSA) standard […]
Preparation of Luria Broth media (LB): Yeast extract (5.0 g), tryptone (10.0 g) and sodium chloride (10.0 g) were dissolved in dH₂O (1.0 L) then divided into bottles and autoclaved.
Preparation of Luria Broth (LB) agar plates: Agar (6.0 g) was added to LB (400 mL) and autoclaved. Once cool, the LB agar was poured into sterile petri dishes under sterile conditions and allowed to set. LB plates were stored at 4 °C until use.
Preparation of bacterial plates: Sterile LB agar plates were streaked using streaked using the desired bacteria i) Pseudomonas aeruginosa (P.aeruginosa) PAO1, ii) Klebsiella pneumoniae (K. pneumoniae) M6 iii) E. coli NCTC 12923 and iv) Acinetobacter baumannii (A. baumannii) ATCC 17978 and Gram-positive i) Staphylococcus aureus (S. aureus) ATCC 9144 ii) Enterococcus faecalis (E. faecalis) NCTC 775 and iii) Enterococcus faecium (E. faecium ) NCTC 12204, then incubated at 37 °C overnight.
Preparation of Inoculum: An initial culture was made up by inoculating LB media (5 mL) with a single colony of bacteria under sterile conditions and incubated at 37 °C with shaking overnight. The following day, overnight bacterial cultures were subcultured into fresh LB medium to a starting OD600 of 0.01.
Preparation of 96 well microplate for MIC50: The 1:100 cell suspension (150 µL) was dispensed into individual wells under sterile conditions. SSAs (30 µL) were added to the wells to equal a total volume of 180 µL in the wells. Six repeats of each concentration for each SSA were created each plate. The plates were sealed using parafilm, then incubated at 37 °C in a microplate reader for 20 hours. OD600 endpoint data was used to generate growth curves. […]

Series [2] in a line: bi-directional permeability in Caco-2 cell line. The format is in vitro ADME, human. Particulars: human; for efflux ratio at 2 h / recovery at 2 h: Caco-2, pH 7.4, Caco-2; for Papp A→B at 2 h / Papp B→A at 2 h: Caco-2, pH 7.4, Caco-2, 5 or 10 µM, HBSS pH 7.4, 2 hours. The method, then: Metabolic stability was assessed in mouse and rat liver microsomes. Microsomes are subcellular fractions of hepatocytes and contain CYP450s, the predominant enzymes involved in first-pass metabolism.[66] […] A plasma protein binding assay was performed to assess the extent of compound binding to plasma proteins. This is key as only unbound compound is free to distribute and exert a pharmacological effect. […] To assess the potential for this sub-class of SSAs to be developed as drugs for oral administration, Caco-2 permeability assays were also performed, as a cellular model indicative of human intestinal permeability. […]
Sample analysis was by electrospray ionisation. […]
Bi-directional Permeability in Caco-2 Cell Line:
The bi-directional permeability in Caco-2 cell lines was determined by seeding cells onto an HTS Transwell plate. Cells were cultivated for 14-18 days in a cell culture incubator at 37 °C, 5 % CO2, 95 % relative humidity. Cell culture medium was replaced every other day. To assess monolayer integrity the transepithelial electrical resistance (TEER) across the monolayer was measured using Millicell Epithelial volt-ohm meter prior to assay and Lucifer yellow (LY) fluorescence measurement post-assay.
Test and control compounds were prepared in DMSO and diluted in Hank’s Balanced Saline […]
Solution (HBSS, pH 7.4) to a final concentration of 5 or 10 µM. Compound was added to the […]
donor compartment of the transwell plate for both apical to basolateral (A>B) and basolateral […]
to apical (B>A) measurements, with blank HBSS being added to the receiver compartment.
The transwell plate was then incubated at 37 °C, 5 % CO2 for 2 hours.
On the technique in general: Passage across Caco-2 layers is used to estimate intestinal permeability.

Regarding `O=C(O)CC[C@H](NC(=O)Nc1ccc(C(F)(F)F)cc1)C(=O)O` [SSA 1], in series [1] (5.6 mM, D2O 5.0% EtOH, 298 K), the “(Q) 1H NMR spectroscopy, proportion NMR silent, acid or anion” value (shortened to “(Q) 1H NMR spectroscopy … acid or anion”) is 38.5% and 39%. For the same molecule, the “(Q) 1H NMR, proportion NMR silent, SSA acid or anion” value (from here on “(Q) 1H NMR … SSA acid or anion”) in series [1] (~112 mM, DMSO-d6 1.0% DCM) worked out at 0%. Besides, in the series with E. faecium NCTC 12204, the “Percentage inhibition of bacterial growth, NCTC 12204 (E. faecium)” value (shortened to “Percentage inhibition”) is 99.02% and 99%. In addition, in series [2], the efflux ratio at 2 h is 1.23, the Papp A→B at 2 h worked out at 0.19 ×10⁻⁶ cm/s and the basolateral-to-apical permeability (Papp B→A) at 2 h worked out at 0.23 ×10⁻⁶ cm/s. Besides, in series [2] (read-out: Recovery (%) AP-BL), the recovery at 2 h was 107%. The recovery at 2 h in series [2] (read-out: Recovery (%) BL-AP) worked out at 89.7%.

With `O=C(O)CC[C@H](NC(=O)Nc1ccc(C(F)(F)F)cc1)C(=O)O` [SSA 2], in series [1] (5.6 mM, D2O 5.0% EtOH, 298 K), the “(Q) 1H NMR spectroscopy … acid or anion” value was 39.8% and ~40%; the “(Q) 1H NMR spectroscopy, proportion NMR silent, cation” value was 36.3% and 36%. In addition, in series [1] (~112 mM, DMSO-d6 1.0% DCM), the “(Q) 1H NMR … SSA acid or anion” value was found to be 0% and the “(Q) 1H NMR, proportion NMR silent, cation” value is reported as 0%. Also, the “Percentage inhibition” value with E. faecium NCTC 12204 is 66.25% and 66%.

For the molecule `O=C(O)CC[C@@H](NC(=O)Nc1ccc(C(F)(F)F)cc1)C(=O)O` [SSA 3], in series [1] (5.6 mM, D2O 5.0% EtOH, 298 K, listed as 3), the “(Q) 1H NMR spectroscopy … acid or anion” value was 34%. In series [1] (~112 mM, DMSO-d6 1.0% DCM), the “(Q) 1H NMR … SSA acid or anion” value worked out at 0%. The inhibition at 5000 µM in the series with E. faecium NCTC 12204 (Enterococcus faecium, NCTC12204, 20 h, read-out: Percentage inhibition of bacterial growth, NCTC 12204 (E. faecium)) came out at 99.4%. Besides, the “Percentage inhibition” value with E. faecium NCTC 12204 (listed as 3) is reported as 99%. In addition, in series [2], the efflux ratio at 2 h turned out to be 2.31, the Papp A→B at 2 h was found to be 0.1 ×10⁻⁶ cm/s and the Papp B→A at 2 h was 0.24 ×10⁻⁶ cm/s. For the same molecule, the recovery at 2 h in series [2] (read-out: Recovery (%) AP-BL) is 103%. Besides, the recovery at 2 h in series [2] (read-out: Recovery (%) BL-AP) is 87.4%.

Regarding `O=C(O)CC[C@H](NC(=O)Nc1ccc(Br)cc1)C(=O)O` [SSA 9], the “(Q) 1H NMR spectroscopy … acid or anion” value in series [1] (5.6 mM, D2O 5.0% EtOH, 298 K, listed as 9) is 40.9% and 41%. Besides, the “Percentage inhibition” value with E. faecium NCTC 12204 (listed as 9) was 44.44% and 44%. For the same molecule, in series [2], the efflux ratio at 2 h worked out at 1.93, the Papp A→B at 2 h amounted to 0.17 ×10⁻⁶ cm/s and the Papp B→A at 2 h was determined as 0.32 ×10⁻⁶ cm/s. Besides, the recovery at 2 h in series [2] (read-out: Recovery (%) AP-BL) amounted to 115%. For the same molecule, the recovery at 2 h in series [2] (read-out: Recovery (%) BL-AP) is 106%.

As a reminder, the efflux ratio is a quotient of directional permeabilities that is used to spot active efflux. For orientation: Papp A→B means how fast a substance crosses the layer from the apical side. A lower Papp A→B goes with slow passage. In general, Papp B→A refers to the apparent permeability from the basolateral to the apical side of a cell layer. By inhibition is commonly meant the relative decrease from the control value, in per cent.
